Here are results for seven molecules from ChEMBL document CHEMBL1201862, “PubChem BioAssay data set” (2004).

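Protocol summary: plate cells (96-well), add compound at 5 concentrations, incubate 48 h, interpolate endpoints linearly. The concentration for 50% growth inhibition is given as GI50.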 Active and inactive are the calls of the source. Cut-off read from the data, not from the text of the source: active = GI50 up to about 1.1 µM and inactive = higher. Where only a bound is given, the exact number is not on record here.

Test systems include A498; ACHN; CAKI-1; COLO 205; HCC 2998; HCT-116; Hs-578T; K562; MDA-MB-231; NCI-H226; NCI-H23; NCI-H522; NCI/ADR-RES; RPMI-8226; SF-539; SK-MEL-5; SN12C; SW-620; TK-10; UO-31.
Assay in all cases: inhibition of tumour cell growth, NCI panel, 48 h

For the molecule `COC(=O)C1=C(OC(=O)/C=C/c2ccc(Cl)cc2)C(C(=O)OC)[C@]2(O)[C@@H](C(=O)OC)[C@H]1C[C@@H](c1ccccc1)[C@@H]2C(=O)OC` (stereo not given in full), the GI50 with A498 is 6.04 µM (inactive); with ACHN, 4.74 µM (inactive); in the assay on CAKI-1, 11.1 µM (inactive); in the assay on COLO 205 it was 4.43 µM (inactive); with HCC 2998, 7.83 µM (inactive); with HCT-116, 3.53 µM (inactive). Besides, the GI50 was 7.71 µM (inactive) with Hs-578T; 4.54 µM (inactive) in the assay on K562; 12.4 µM (inactive) in the assay with MDA-MB-231; 4.12 µM (inactive) in the assay on NCI-H226; 3.44 µM (inactive) in the assay with NCI-H23; 2.34 µM (inactive) with NCI-H522. Also, the GI50 in the assay with NCI/ADR-RES is 3.52 µM (inactive); with RPMI-8226, 3.92 µM (inactive); with SF-539 it was 4.68 µM (inactive); with SK-MEL-5 it was 4.55 µM (inactive); in the assay with SN12C, 7.36 µM (inactive); with SW-620, 3.97 µM (inactive). The GI50 with TK-10 was > 30.3 µM (inactive); in the assay on UO-31, 7.08 µM (inactive).
In the case of `CNC(=O)CCC(NC(=O)OC(C)(C)C)C(=O)NC(Cc1ccc(NC(=O)CCCCC(C)=O)cc1)C(=O)NCC(=O)NC` (stereo not given), the GI50 in the assay with A498, in the assay on ACHN, in the assay on CAKI-1, in the assay on COLO 205, with HCC 2998 and with HCT-116 was > 100 µM (inactive) throughout. Moreover, the GI50 in the assay on Hs-578T, in the assay on K562, with MDA-MB-231, in the assay with NCI-H226, in the assay with NCI-H23 and in the assay with NCI-H522 was > 100 µM (inactive) throughout. The GI50 in the assay with NCI/ADR-RES, in the assay on RPMI-8226, in the assay on SF-539, in the assay on SK-MEL-5, in the assay on SN12C and in the assay with SW-620 was > 100 µM (inactive) in each case. The GI50 in the assay with TK-10 and in the assay on UO-31 was > 100 µM (inactive) in each case.
Take `CC(=O)O[C@H]1C(=O)[C@]2(C)[C@@H](OC(=O)OCCC(O)CO)C[C@H]3OC[C@@]3(OC(C)=O)[C@H]2[C@H](OC(=O)c2ccccc2)[C@]2(O)C[C@H](OC(=O)[C@H](O)[C@@H](NC(=O)c3ccccc3)c3ccccc3)C(C)=C1C2(C)C` (stereo not given in full): the GI50 with A498 was 0.783 µM (active); with ACHN it was 3.48 µM (inactive); in the assay with CAKI-1, 2.26 µM (inactive); in the assay on COLO 205 it was < 0.01 µM (active); in the assay on HCC 2998, < 0.01 µM (active); in the assay on HCT-116, < 0.01 µM (active). Also, the GI50 is < 0.01 µM (active) in the assay with Hs-578T; < 0.01 µM (active) in the assay with K562; 0.0288 µM (active) with MDA-MB-231; < 0.0228 µM (active) in the assay on NCI-H226; < 0.0127 µM (active) in the assay with NCI-H23; < 0.01 µM (active) with NCI-H522. Further, the GI50 in the assay on NCI/ADR-RES was 15.2 µM (inactive); in the assay with RPMI-8226, < 0.01 µM (active); with SF-539, < 0.01 µM (active); in the assay on SK-MEL-5 it was 0.0172 µM (active); in the assay with SN12C it was < 0.0166 µM (active); with SW-620 it was < 0.0251 µM (active). In addition, the values for the GI50 with TK-10 and with UO-31 were 2.4 µM (inactive) and 8.61 µM (inactive), respectively.
Consider `COc1cc2cc(C(=O)N3CC(CCl)c4c3cc(NCCN)c3ccccc43)[nH]c2c(OC)c1OC` (stereo not given), for which the GI50 in the assay with A498 was < 0.01 µM (active); with ACHN, < 0.01 µM (active); in the assay with CAKI-1, < 0.01 µM (active); with COLO 205 it was 0.0112 µM (active); in the assay with HCC 2998, < 0.01 µM (active); in the assay on HCT-116, < 0.01 µM (active). For the same molecule, the GI50 with Hs-578T is < 0.01 µM (active); in the assay with K562 it was < 0.01 µM (active); in the assay on MDA-MB-231 it was < 0.01 µM (active); in the assay with NCI-H226 it was 0.0117 µM (active); in the assay with NCI-H23, < 0.01 µM (active); in the assay on NCI-H522 it was < 0.01 µM (active). The GI50 in the assay with NCI/ADR-RES, in the assay on RPMI-8226, in the assay on SF-539, in the assay with SK-MEL-5, in the assay with SN12C and in the assay on SW-620 was < 0.01 µM (active) throughout. Besides, the GI50 with TK-10 and with UO-31 was < 0.01 µM (active) throughout.
As for `COc1ccc(CSC2=C(C#N)C(=O)NC3(CCCCC3)S2)cc1`, the GI50 in the assay with A498 is > 63.5 µM (inactive); in the assay on ACHN it was > 93.5 µM (inactive); with CAKI-1, 77.6 µM (inactive); with COLO 205 it was > 61.8 µM (inactive); with HCC 2998, 28.2 µM (inactive); in the assay on HCT-116, 44.5 µM (inactive). Besides, the GI50 with Hs-578T is 41.9 µM (inactive); in the assay with K562, > 50 µM (inactive); with MDA-MB-231, > 76.4 µM (inactive); in the assay with NCI-H226, > 100 µM (inactive); with NCI-H23, 48.8 µM (inactive); in the assay with NCI-H522, 24.2 µM (inactive). Besides, the GI50 was 49.7 µM (inactive) in the assay on NCI/ADR-RES; > 56.6 µM (inactive) with RPMI-8226; > 56.6 µM (inactive) with SF-539; 42.5 µM (inactive) in the assay with SK-MEL-5; 65.2 µM (inactive) in the assay with SN12C; 32.6 µM (inactive) in the assay with SW-620. The results for the GI50 with TK-10 and in the assay with UO-31 were > 95.5 µM (inactive) and 96.4 µM (inactive), respectively.
As for `C[C@H]1CC(=O)C[C@@H]2CC[C@@H]3[C@H](CC[C@]4(C)C(OC(=O)c5cccc6c(=O)c7ccccc7[nH]c56)CC[C@@H]34)[C@]21C` (stereo not given in full), the GI50 with A498 is 30.1 µM (inactive); in the assay with ACHN it was 34.4 µM (inactive); with CAKI-1, 10 µM (inactive); in the assay with COLO 205, 22 µM (inactive); with HCC 2998 it was 47 µM (inactive); in the assay with HCT-116, 33.3 µM (inactive). Besides, the GI50 is 46.8 µM (inactive) with Hs-578T; 23.6 µM (inactive) in the assay with K562; 23.6 µM (inactive) in the assay on MDA-MB-231; 28.2 µM (inactive) in the assay with NCI-H226; 30.6 µM (inactive) in the assay on NCI-H23; 18.7 µM (inactive) in the assay with NCI-H522. In addition, the GI50 is 20.4 µM (inactive) with NCI/ADR-RES; 11.1 µM (inactive) in the assay with RPMI-8226; > 100 µM (inactive) in the assay on SF-539; 16 µM (inactive) with SK-MEL-5; 46 µM (inactive) in the assay on SN12C; 55.5 µM (inactive) in the assay with SW-620. For the same molecule, the figures for the GI50 in the assay on TK-10 and in the assay with UO-31 were 64.7 µM (inactive) and 24.2 µM (inactive), respectively.
For the molecule `O=C1/C(=C/c2ccccc2)CCc2ccc([N+](=O)[O-])cc21`, the GI50 in the assay with A498 was > 78.7 µM (inactive); with ACHN, 40.4 µM (inactive); in the assay on CAKI-1, > 100 µM (inactive); in the assay on COLO 205, > 100 µM (inactive); in the assay on HCC 2998 it was > 88.3 µM (inactive); with HCT-116 it was 24.4 µM (inactive). In addition, the GI50 with Hs-578T is 37.4 µM (inactive); in the assay with K562, 15.9 µM (inactive); with MDA-MB-231, 69.3 µM (inactive); with NCI-H226, > 100 µM (inactive); in the assay on NCI-H23 it was 34.7 µM (inactive); with NCI-H522, 3.31 µM (inactive). Besides, the GI50 in the assay on NCI/ADR-RES is 43.6 µM (inactive); with RPMI-8226, 0.492 µM (active); in the assay on SF-539, 64.3 µM (inactive); in the assay with SK-MEL-5, 25.2 µM (inactive); in the assay on SN12C, > 75.9 µM (inactive); in the assay on SW-620, > 70 µM (inactive). Also, the values for the GI50 in the assay with TK-10 and with UO-31 were 60.1 µM (inactive) and > 82.8 µM (inactive), respectively.
